Data taken from the NIST ThermoML archive (doi:10.1021/je500455u).
± gives the expanded uncertainty stated by the source.

Conditions: 101.33 kPa, Liquid, Vibrating tube method

mass density (298.15 K) | mass density (278.15 K) | mass density (283.15 K) | mass density (288.15 K) | mass density (293.15 K) | mass density (303.15 K) | mass density (308.15 K) | mass density (313.15 K) | mass density (318.15 K) | mass density (323.15 K) | mass density (328.15 K) | mass density (333.15 K) | mass density (338.15 K) | mass density (343.15 K) | SMILES
1604.84 ± 0.78 kg/m3 |  |  |  |  |  |  |  |  |  |  |  |  |  | OC(C(F)(F)F)C(F)(F)F [1,1,1,3,3,3-hexafluoro-2-propanol]
786.58 ± 0.23 kg/m3 |  |  |  |  |  |  |  |  |  |  |  |  |  | CO [methanol]
1786.6 ± 1 kg/m3 | 1841 ± 1 kg/m3 | 1827.6 ± 1 kg/m3 | 1814 ± 1 kg/m3 | 1800.4 ± 1 kg/m3 | 1772.7 ± 1 kg/m3 | 1758.7 ± 0.9 kg/m3 | 1744.5 ± 0.9 kg/m3 | 1730.3 ± 0.9 kg/m3 | 1715.8 ± 0.9 kg/m3 | 1701.2 ± 0.9 kg/m3 | 1686.4 ± 0.9 kg/m3 | 1671.5 ± 0.9 kg/m3 | 1656.3 ± 0.8 kg/m3 | FC(F)(F)C1(F)C(F)(F)C(F)(F)C(F)(F)C(F)(F)C1(F)F [perfluoro(methylcyclohexane)]
1684.4 ± 0.9 kg/m3 | 1742.5 ± 0.9 kg/m3 | 1728.3 ± 0.9 kg/m3 | 1713.8 ± 0.9 kg/m3 | 1699.2 ± 0.9 kg/m3 | 1669.4 ± 0.9 kg/m3 | 1654.1 ± 0.8 kg/m3 | 1638.6 ± 0.8 kg/m3 | 1622.9 ± 0.8 kg/m3 | 1606.4 ± 0.8 kg/m3 | 1590.5 ± 0.8 kg/m3 |  |  |  | FC(F)(F)C(F)(F)C(F)(F)C(F)(F)C(F)(F)C(F)(F)F [perfluorohexane]
